In PubChem BioAssay (NCI):
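Abbreviation: GI50, concentration required for 50% inhibition of growth. TGI marks complete inhibition of growth.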

Experiments:
Test in all cases: inhibition of tumour cell growth, NCI panel, 384-well format
IGROV1 ovarian = test system: IGROV1 ovarian
HL-60(TB) leukemia = test system: HL-60(TB) leukemia
NCI-H23 lung = test system: NCI-H23 lung
UO-31 renal = test system: UO-31 renal
TK-10 renal = test system: TK-10 renal
SR leukemia = test system: SR leukemia
ACHN renal = test system: ACHN renal
MDA-MB-231 breast = test system: MDA-MB-231 breast
LOX IMVI melanoma = test system: LOX IMVI melanoma
RXF 393 renal = test system: RXF 393 renal
SW-620 colon = test system: SW-620 colon
SN12C renal = test system: SN12C renal
NCI-H522 lung = test system: NCI-H522 lung
K-562 leukemia = test system: K-562 leukemia
SF-539 CNS = test system: SF-539 CNS
NCI-H460 NSCLC = test system: NCI-H460 NSCLC
SK-OV-3 ovarian = test system: SK-OV-3 ovarian
BT-549 breast = test system: BT-549 breast
HOP-62 NSCLC = test system: HOP-62 NSCLC
SF-268 CNS = test system: SF-268 CNS
MDA-MB-435 melanoma = test system: MDA-MB-435 melanoma
HOP-92 NSCLC = test system: HOP-92 NSCLC
UACC-257 melanoma = test system: UACC-257 melanoma
SK-MEL-5 melanoma = test system: SK-MEL-5 melanoma
A549 NSCLC = test system: A549 NSCLC
MDA-MB-468 breast = test system: MDA-MB-468 breast
KM12 colon = test system: KM12 colon
CAKI-1 renal = test system: CAKI-1 renal
SNB-75 CNS = test system: SNB-75 CNS
MALME-3M melanoma = test system: MALME-3M melanoma
NCI/ADR-RES ovarian = test system: NCI/ADR-RES ovarian
NCI-H226 lung = test system: NCI-H226 lung
CCRF-CEM leukemia = test system: CCRF-CEM leukemia
T-47D breast = test system: T-47D breast
OVCAR-3 ovarian = test system: OVCAR-3 ovarian
MCF7 breast = test system: MCF7 breast
SF-295 CNS = test system: SF-295 CNS
MOLT-4 leukemia = test system: MOLT-4 leukemia
HS 578T breast = test system: HS 578T breast
DU-145 prostate = test system: DU-145 prostate
OVCAR-8 ovarian = test system: OVCAR-8 ovarian
HCT-15 colon = test system: HCT-15 colon
OVCAR-4 ovarian = test system: OVCAR-4 ovarian
M14 melanoma = test system: M14 melanoma
U251 glioblastoma = test system: U251 glioblastoma
SNB-19 CNS = test system: SNB-19 CNS
PC-3 prostate = test system: PC-3 prostate
COLO 205 colon = test system: COLO 205 colon
HT29 colon = test system: HT29 colon
SK-MEL-28 melanoma = test system: SK-MEL-28 melanoma
RPMI-8226 leukemia = test system: RPMI-8226 leukemia
OVCAR-5 ovarian = test system: OVCAR-5 ovarian
NCI-H322M lung = test system: NCI-H322M lung
EKVX NSCLC = test system: EKVX NSCLC
786-0 renal = test system: 786-0 renal
HCC-2998 colon = test system: HCC-2998 colon
A498 renal = test system: A498 renal
HCT-116 colon = test system: HCT-116 colon

COc1c/c(=C2/C=c3ccccc3=N2)[nH]/c1=C/c1[nH]c(C)cc1C
GI50 (IGROV1 ovarian): 30.9 nM
TGI (IGROV1 ovarian): 99.1 nM
GI50 (HL-60(TB) leukemia): 17.3 nM
TGI (HL-60(TB) leukemia): 31.6 nM
GI50 (NCI-H23 lung): 24.7 nM
TGI (NCI-H23 lung): 63 nM
GI50 (UO-31 renal): 18.8 nM
TGI (UO-31 renal): 35.3 nM
GI50 (TK-10 renal): 25.2 nM
TGI (TK-10 renal): 65.5 nM
GI50 (SR leukemia): 20.7 nM
TGI (SR leukemia): 35.3 nM
GI50 (ACHN renal): 32.5 nM
TGI (ACHN renal): 123 nM
GI50 (MDA-MB-231 breast): 19.3 nM
TGI (MDA-MB-231 breast): 52.7 nM
GI50 (LOX IMVI melanoma): 17.7 nM
TGI (LOX IMVI melanoma): 32.4 nM
GI50 (RXF 393 renal): 14.2 nM
TGI (RXF 393 renal): 51.6 nM
GI50 (SW-620 colon): 22.2 nM
TGI (SW-620 colon): 47.2 nM
GI50 (SN12C renal): 40.6 nM
TGI (SN12C renal): 178 nM
GI50 (NCI-H522 lung): 33.5 nM
TGI (NCI-H522 lung): 220 nM
GI50 (K-562 leukemia): 62.9 nM
TGI (K-562 leukemia): 244 nM
GI50 (SF-539 CNS): 31.6 nM
TGI (SF-539 CNS): 83.2 nM
GI50 (NCI-H460 NSCLC): 19.5 nM
TGI (NCI-H460 NSCLC): 41 nM
GI50 (SK-OV-3 ovarian): 52.3 nM
TGI (SK-OV-3 ovarian): 293 nM
GI50 (BT-549 breast): 15.6 nM
TGI (BT-549 breast): 58.2 nM
GI50 (HOP-62 NSCLC): 24.1 nM
TGI (HOP-62 NSCLC): 77.3 nM
GI50 (SF-268 CNS): 19.3 nM
TGI (SF-268 CNS): 88.6 nM
GI50 (MDA-MB-435 melanoma): 23.6 nM
TGI (MDA-MB-435 melanoma): 53.2 nM
GI50 (HOP-92 NSCLC): 23.9 nM
TGI (HOP-92 NSCLC): 67.1 nM
GI50 (UACC-257 melanoma): 24.7 nM
TGI (UACC-257 melanoma): 53.7 nM
GI50 (SK-MEL-5 melanoma): 19.4 nM
TGI (SK-MEL-5 melanoma): 37.3 nM
GI50 (A549 NSCLC): 120 nM
TGI (A549 NSCLC): 385 nM
GI50 (MDA-MB-468 breast): 197 nM
TGI (MDA-MB-468 breast): 587 nM
GI50 (KM12 colon): 27.8 nM
TGI (KM12 colon): 99.8 nM
GI50 (CAKI-1 renal): 45.2 nM
TGI (CAKI-1 renal): 269 nM
GI50 (SNB-75 CNS): 32.8 nM
TGI (SNB-75 CNS): 85.2 nM
GI50 (MALME-3M melanoma): 27.2 nM
TGI (MALME-3M melanoma): 64.3 nM
GI50 (NCI/ADR-RES ovarian): 20.5 nM
TGI (NCI/ADR-RES ovarian): 40.5 nM
GI50 (NCI-H226 lung): 15.3 nM
TGI (NCI-H226 lung): 32.3 nM
GI50 (CCRF-CEM leukemia): 16.4 nM
TGI (CCRF-CEM leukemia): 32.8 nM
GI50 (T-47D breast): 50.2 nM
TGI (T-47D breast): 194 nM
GI50 (OVCAR-3 ovarian): 14.3 nM
TGI (OVCAR-3 ovarian): 34.6 nM
GI50 (MCF7 breast): 32 nM
TGI (MCF7 breast): 106 nM
GI50 (SF-295 CNS): 35.1 nM
TGI (SF-295 CNS): 155 nM
GI50 (MOLT-4 leukemia): 14.9 nM
TGI (MOLT-4 leukemia): 28.7 nM
GI50 (HS 578T breast): 26.3 nM
TGI (HS 578T breast): 77.9 nM
GI50 (DU-145 prostate): 33.8 nM
TGI (DU-145 prostate): 1060 nM
GI50 (OVCAR-8 ovarian): 19.6 nM
TGI (OVCAR-8 ovarian): 43.1 nM
GI50 (HCT-15 colon): 17.9 nM
TGI (HCT-15 colon): 35.2 nM
GI50 (OVCAR-4 ovarian): 24.2 nM
TGI (OVCAR-4 ovarian): 158 nM
GI50 (M14 melanoma): 22.3 nM
TGI (M14 melanoma): 52.7 nM
GI50 (U251 glioblastoma): 36.5 nM
TGI (U251 glioblastoma): 132 nM
GI50 (SNB-19 CNS): 54.5 nM
TGI (SNB-19 CNS): 1290 nM
GI50 (PC-3 prostate): 17.8 nM
TGI (PC-3 prostate): 76.8 nM
GI50 (COLO 205 colon): 24.6 nM
TGI (COLO 205 colon): 68.9 nM
GI50 (HT29 colon): 21.9 nM
TGI (HT29 colon): 54.8 nM
GI50 (SK-MEL-28 melanoma): 24.4 nM
TGI (SK-MEL-28 melanoma): 61.8 nM
GI50 (RPMI-8226 leukemia): 19.7 nM
TGI (RPMI-8226 leukemia): 39.8 nM
GI50 (OVCAR-5 ovarian): 33 nM
TGI (OVCAR-5 ovarian): 1230 nM
GI50 (NCI-H322M lung): 56.4 nM
TGI (NCI-H322M lung): 1140 nM
GI50 (EKVX NSCLC): 24.5 nM
TGI (EKVX NSCLC): 81.2 nM
GI50 ([…]-0 renal): 13.8 nM
TGI (786-0 renal): 33.8 nM
GI50 (HCC-2998 colon): 17.1 nM
TGI (HCC-2998 colon): 69 nM
GI50 (A498 renal): 81 nM
TGI (A498 renal): 1070 nM
GI50 (HCT-116 colon): 17.2 nM
TGI (HCT-116 colon): 33.1 nM
